Laboratory results taken from paper PMC7265341, “Quantifying CDK inhibitor selectivity in live cells” (Nature Communications, 2020).
Read-outs that look alike come from different tables or passages of the source.

Experiments:
CDK4/Cyclin D1 = CDK4/Cyclin D1 (Homo sapiens, UniProt P11802); experiment: NanoBRET live-cell target engagement, NanoLuc-CDK4/Cyclin D1 in HEK-293; assay type: binding; conditions: CDK4/D1, read-out: Inhibition at 10µM (%)
CDK5/CDK5R1 = CDK5/CDK5R1 (Homo sapiens, UniProt Q00535); experiment: NanoBRET live-cell target engagement, CDK5-NanoLuc/CDK5R1 in HEK-293; assay type: binding; conditions: CDK5/CDK5R1, read-out: Inhibition at 10µM (%)
CDK8/Cyclin C = CDK8/Cyclin C (Homo sapiens, UniProt P49336); experiment: NanoBRET live-cell target engagement, NanoLuc-CDK8/Cyclin C in HEK-293; assay type: binding; conditions: CDK8/C, read-out: Inhibition at 10µM (%)
CDK11A/Cyclin L2 = target: T1, CDK11A/Cyclin L2 (Homo sapiens, UniProt Q9UQ88); experiment: NanoBRET live-cell target engagement, CDK11A-NanoLuc/Cyclin L2 in HEK-293; assay type: binding; conditions: CDK11a/L2, read-out: Inhibition at 10µM (%)
T1 sequence (Q9UQ88 1-783): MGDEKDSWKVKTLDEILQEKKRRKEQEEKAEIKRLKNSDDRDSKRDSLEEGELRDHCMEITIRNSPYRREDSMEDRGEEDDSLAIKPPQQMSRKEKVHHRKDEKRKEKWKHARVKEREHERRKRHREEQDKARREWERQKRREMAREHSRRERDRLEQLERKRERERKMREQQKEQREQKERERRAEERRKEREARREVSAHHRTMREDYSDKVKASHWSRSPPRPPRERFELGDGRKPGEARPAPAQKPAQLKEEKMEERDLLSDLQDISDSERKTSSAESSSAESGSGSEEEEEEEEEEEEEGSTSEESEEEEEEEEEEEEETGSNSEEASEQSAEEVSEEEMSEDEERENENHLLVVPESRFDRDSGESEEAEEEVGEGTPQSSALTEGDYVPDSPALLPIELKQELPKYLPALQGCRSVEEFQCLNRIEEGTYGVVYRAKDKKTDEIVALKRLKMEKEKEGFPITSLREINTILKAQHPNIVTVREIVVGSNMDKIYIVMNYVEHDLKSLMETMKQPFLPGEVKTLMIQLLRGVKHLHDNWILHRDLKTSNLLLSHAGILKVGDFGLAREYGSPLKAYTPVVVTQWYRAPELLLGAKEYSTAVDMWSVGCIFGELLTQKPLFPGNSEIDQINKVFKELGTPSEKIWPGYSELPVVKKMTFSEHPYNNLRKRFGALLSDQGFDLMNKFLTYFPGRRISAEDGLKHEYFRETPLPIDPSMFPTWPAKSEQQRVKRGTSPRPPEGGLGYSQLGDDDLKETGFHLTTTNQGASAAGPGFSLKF

CDK11B/Cyclin L2 = CDK11B/Cyclin L2 (Homo sapiens, UniProt P21127); experiment: NanoBRET live-cell target engagement, CDK11B-NanoLuc/Cyclin L2 in HEK-293; assay type: binding; conditions: CDK11b/L2, read-out: Inhibition at 10µM (%)
Chain of CDK11B/Cyclin L2 (P21127 1-782 isoform P21127-2): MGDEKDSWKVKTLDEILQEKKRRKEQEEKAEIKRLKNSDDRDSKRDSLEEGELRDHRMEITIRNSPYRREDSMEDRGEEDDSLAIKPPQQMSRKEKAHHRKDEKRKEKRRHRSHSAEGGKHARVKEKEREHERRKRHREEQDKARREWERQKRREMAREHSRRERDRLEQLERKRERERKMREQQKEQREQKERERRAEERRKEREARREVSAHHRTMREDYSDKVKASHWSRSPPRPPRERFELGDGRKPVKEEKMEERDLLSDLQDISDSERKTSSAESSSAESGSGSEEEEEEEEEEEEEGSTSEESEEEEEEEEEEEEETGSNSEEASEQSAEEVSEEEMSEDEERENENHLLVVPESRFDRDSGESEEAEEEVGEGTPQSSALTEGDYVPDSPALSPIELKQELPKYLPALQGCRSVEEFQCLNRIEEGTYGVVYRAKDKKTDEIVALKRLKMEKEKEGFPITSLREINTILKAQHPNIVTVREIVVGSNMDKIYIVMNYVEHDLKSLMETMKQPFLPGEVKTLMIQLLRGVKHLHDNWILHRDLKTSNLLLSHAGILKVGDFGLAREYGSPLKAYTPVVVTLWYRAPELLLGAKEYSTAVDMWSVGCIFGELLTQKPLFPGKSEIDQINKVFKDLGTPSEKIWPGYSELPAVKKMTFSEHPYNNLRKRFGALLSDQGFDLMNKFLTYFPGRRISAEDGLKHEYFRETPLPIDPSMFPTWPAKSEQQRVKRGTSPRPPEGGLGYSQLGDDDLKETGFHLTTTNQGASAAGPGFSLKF

CDK12/Cyclin K = CDK12/Cyclin K (Homo sapiens, UniProt Q9NYV4); experiment: NanoBRET live-cell target engagement, CDK12-NanoLuc/Cyclin K in HEK-293; assay type: binding; conditions: CDK12/K, read-out: Inhibition at 10µM (%)
CDK13/Cyclin K = CDK13/Cyclin K (Homo sapiens, UniProt Q14004); experiment: NanoBRET live-cell target engagement, CDK13-NanoLuc/Cyclin K in HEK-293; assay type: binding; conditions: CDK13/K, read-out: Inhibition at 10µM (%)
Chain of CDK13/Cyclin K (O75909 whole entry): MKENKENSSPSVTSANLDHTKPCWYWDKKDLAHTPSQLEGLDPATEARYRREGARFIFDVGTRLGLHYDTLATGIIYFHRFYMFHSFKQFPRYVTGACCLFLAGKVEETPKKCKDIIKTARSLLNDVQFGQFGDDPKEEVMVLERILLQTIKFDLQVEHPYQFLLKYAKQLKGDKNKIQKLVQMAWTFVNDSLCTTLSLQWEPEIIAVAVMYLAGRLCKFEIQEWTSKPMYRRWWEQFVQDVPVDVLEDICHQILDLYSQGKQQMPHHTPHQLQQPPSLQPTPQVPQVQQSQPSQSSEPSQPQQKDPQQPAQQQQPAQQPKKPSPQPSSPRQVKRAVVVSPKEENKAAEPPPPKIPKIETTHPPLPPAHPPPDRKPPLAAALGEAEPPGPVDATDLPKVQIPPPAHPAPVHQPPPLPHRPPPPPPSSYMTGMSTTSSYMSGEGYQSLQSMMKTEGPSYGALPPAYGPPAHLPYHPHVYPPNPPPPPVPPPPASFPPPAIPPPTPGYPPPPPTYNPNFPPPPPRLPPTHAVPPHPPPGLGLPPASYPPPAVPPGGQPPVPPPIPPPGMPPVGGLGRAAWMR
Chain of CDK13/Cyclin K (Q14004 other isoform, or with tags, fused parts or gaps): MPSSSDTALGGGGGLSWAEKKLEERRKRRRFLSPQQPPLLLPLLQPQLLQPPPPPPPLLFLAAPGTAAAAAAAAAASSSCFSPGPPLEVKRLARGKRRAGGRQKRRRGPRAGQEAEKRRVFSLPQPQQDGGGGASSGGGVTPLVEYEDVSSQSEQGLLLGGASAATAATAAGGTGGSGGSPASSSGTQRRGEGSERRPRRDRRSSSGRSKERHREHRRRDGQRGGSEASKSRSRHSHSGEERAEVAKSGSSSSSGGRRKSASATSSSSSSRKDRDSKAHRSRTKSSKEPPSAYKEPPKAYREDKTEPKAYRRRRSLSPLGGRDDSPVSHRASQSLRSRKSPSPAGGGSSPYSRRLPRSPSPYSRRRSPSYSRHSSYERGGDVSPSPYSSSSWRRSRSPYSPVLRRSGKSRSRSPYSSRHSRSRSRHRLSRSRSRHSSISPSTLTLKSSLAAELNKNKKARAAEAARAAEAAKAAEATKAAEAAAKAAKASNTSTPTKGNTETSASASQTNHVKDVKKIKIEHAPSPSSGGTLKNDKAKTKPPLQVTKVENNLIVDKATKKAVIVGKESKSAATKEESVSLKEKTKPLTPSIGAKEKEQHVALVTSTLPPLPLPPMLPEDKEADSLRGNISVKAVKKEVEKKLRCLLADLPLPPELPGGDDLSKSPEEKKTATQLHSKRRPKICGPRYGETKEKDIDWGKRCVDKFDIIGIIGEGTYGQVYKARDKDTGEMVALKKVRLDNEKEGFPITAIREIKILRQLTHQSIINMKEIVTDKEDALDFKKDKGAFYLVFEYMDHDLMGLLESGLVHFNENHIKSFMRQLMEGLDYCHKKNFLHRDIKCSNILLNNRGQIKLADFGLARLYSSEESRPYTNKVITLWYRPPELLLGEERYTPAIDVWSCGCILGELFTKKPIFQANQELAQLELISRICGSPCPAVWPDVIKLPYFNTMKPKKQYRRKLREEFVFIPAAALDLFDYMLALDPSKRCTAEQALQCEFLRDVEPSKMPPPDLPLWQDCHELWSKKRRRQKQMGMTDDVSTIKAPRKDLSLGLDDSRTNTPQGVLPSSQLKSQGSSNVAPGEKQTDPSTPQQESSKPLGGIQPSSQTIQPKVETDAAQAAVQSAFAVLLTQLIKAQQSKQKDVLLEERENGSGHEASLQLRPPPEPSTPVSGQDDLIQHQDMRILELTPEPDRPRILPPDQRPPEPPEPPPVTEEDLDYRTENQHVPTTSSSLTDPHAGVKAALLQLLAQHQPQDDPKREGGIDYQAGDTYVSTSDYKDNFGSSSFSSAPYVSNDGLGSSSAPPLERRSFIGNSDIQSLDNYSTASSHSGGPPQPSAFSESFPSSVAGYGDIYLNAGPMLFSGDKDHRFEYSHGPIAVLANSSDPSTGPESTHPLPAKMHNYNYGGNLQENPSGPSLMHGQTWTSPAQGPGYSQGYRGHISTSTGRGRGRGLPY

CDK14/Cyclin Y = CDK14/Cyclin Y (Homo sapiens, UniProt O94921); experiment: NanoBRET live-cell target engagement, CDK14-NanoLuc/Cyclin Y in HEK-293; assay type: binding; conditions: CDK14/Y, read-out: Inhibition at 10µM (%)
Chain of CDK14/Cyclin Y (O94921 whole entry): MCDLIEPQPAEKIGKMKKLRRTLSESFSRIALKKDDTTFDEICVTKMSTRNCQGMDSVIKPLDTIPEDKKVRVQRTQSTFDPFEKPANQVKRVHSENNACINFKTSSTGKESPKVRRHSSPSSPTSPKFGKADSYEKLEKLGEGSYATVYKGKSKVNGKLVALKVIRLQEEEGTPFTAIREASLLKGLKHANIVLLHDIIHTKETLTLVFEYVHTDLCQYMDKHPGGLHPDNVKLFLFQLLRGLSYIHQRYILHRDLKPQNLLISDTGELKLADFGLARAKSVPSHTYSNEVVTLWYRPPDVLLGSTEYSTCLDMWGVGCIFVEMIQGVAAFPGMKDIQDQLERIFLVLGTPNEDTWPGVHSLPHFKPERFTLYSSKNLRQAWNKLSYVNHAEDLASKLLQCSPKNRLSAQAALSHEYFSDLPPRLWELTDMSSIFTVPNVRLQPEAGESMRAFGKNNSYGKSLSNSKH
Chain of CDK14/Cyclin Y (Q8ND76 whole entry partner): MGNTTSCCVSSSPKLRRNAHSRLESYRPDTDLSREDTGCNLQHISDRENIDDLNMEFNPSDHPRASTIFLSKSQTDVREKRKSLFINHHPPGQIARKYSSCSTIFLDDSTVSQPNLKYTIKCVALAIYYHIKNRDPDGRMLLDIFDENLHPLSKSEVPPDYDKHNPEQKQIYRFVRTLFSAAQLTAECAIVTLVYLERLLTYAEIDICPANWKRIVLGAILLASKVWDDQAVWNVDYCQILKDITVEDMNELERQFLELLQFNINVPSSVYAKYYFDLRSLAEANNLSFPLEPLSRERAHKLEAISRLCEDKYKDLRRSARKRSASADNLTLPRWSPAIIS

CDK15/Cyclin Y = CDK15/Cyclin Y (Homo sapiens, UniProt Q96Q40); experiment: NanoBRET live-cell target engagement, NanoLuc-CDK15/Cyclin Y in HEK-293; assay type: binding
CDK16/Cyclin Y = CDK16/Cyclin Y (Homo sapiens, UniProt Q00536); experiment: NanoBRET live-cell target engagement, CDK16-NanoLuc/Cyclin Y in HEK-293; assay type: binding; conditions: CDK16/Y, read-out: Inhibition at 10µM (%)
CDK17/Cyclin Y = CDK17/Cyclin Y (Homo sapiens, UniProt Q00537); experiment: NanoBRET live-cell target engagement, CDK17-NanoLuc/Cyclin Y in HEK-293; assay type: binding
CDK18/Cyclin Y = CDK18/Cyclin Y (Homo sapiens, UniProt Q07002); experiment: NanoBRET live-cell target engagement, CDK18-NanoLuc/Cyclin Y in HEK-293; assay type: binding; conditions: CDK18/Y, read-out: Inhibition at 10µM (%)
Chain of CDK18/Cyclin Y (Q07002 whole entry): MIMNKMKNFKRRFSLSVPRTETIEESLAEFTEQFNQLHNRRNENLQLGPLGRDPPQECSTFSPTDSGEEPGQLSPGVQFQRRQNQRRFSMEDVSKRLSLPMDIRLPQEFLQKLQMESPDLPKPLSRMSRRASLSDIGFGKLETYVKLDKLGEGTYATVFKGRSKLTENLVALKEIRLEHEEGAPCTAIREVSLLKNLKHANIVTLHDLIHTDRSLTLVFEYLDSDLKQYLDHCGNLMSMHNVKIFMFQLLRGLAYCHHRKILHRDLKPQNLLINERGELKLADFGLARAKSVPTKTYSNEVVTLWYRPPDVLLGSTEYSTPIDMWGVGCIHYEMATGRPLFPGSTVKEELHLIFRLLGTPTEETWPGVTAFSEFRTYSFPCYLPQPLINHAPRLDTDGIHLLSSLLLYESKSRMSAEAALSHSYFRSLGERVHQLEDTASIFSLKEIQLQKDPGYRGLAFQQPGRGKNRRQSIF
Chain of CDK18/Cyclin Y (Q8ND76 whole entry partner): as the sequence (Q8ND76 whole entry partner) above

CDK20/Cyclin H = CDK20/Cyclin H (Homo sapiens, UniProt Q8IZL9); experiment: NanoBRET live-cell target engagement, NanoLuc-CDK20/Cyclin H in HEK-293; assay type: binding
all 21 human CDKs = experiment: Live-cell selectivity profile across all 21 CDK/cyclin complexes in HEK-293; assay type: binding
CDK19/Cyclin C = CDK19/Cyclin C (Homo sapiens, UniProt Q9BWU1); experiment: NanoBRET live-cell target engagement, NanoLuc-CDK19/Cyclin C in HEK-293; conditions: read-out: Inhibition at 10µM (%), CDK19/C
Chain of CDK19/Cyclin C (Q9BWU1 whole entry): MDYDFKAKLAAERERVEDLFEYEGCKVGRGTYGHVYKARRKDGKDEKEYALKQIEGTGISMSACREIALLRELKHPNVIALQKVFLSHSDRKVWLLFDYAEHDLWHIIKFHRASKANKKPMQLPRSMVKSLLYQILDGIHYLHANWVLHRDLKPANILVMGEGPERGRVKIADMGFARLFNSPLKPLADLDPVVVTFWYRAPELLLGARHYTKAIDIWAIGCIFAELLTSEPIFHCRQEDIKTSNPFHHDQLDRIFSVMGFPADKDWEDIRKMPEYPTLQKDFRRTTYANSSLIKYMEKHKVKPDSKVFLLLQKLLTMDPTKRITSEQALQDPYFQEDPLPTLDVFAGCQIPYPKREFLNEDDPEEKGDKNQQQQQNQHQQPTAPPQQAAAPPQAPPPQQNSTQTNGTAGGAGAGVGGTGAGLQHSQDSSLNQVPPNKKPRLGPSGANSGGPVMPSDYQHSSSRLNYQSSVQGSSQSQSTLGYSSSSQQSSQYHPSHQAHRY
Chain of CDK19/Cyclin C (P24863 whole entry partner): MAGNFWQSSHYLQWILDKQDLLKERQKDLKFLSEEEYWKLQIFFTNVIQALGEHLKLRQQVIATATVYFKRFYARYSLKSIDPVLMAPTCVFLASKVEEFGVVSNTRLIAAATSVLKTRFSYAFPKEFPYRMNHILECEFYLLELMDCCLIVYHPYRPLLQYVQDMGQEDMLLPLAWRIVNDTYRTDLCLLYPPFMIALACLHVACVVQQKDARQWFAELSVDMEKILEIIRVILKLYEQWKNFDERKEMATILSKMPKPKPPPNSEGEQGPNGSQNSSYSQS

CDK10/Cyclin L2 = CDK10/Cyclin L2 (Homo sapiens, UniProt Q15131); experiment: NanoBRET live-cell target engagement, CDK10-NanoLuc/Cyclin L2 in HEK-293; conditions: read-out: Inhibition at 10µM (%), CDK10/L2
CDK6/Cyclin D1 = CDK6/Cyclin D1 (Homo sapiens, UniProt Q00534); experiment: NanoBRET live-cell target engagement, NanoLuc-CDK6/Cyclin D1 in HEK-293; assay type: binding; conditions: read-out: Inhibition at 10µM (%), CDK6/D1
[1] = CDK15/Y, average, read-out: Inhibition at 10µM (%)
[2] = CDK15/Y, experiment 2, read-out: Inhibition at 10µM (%)
[3] = CDK17/Y, average, read-out: Inhibition at 10µM (%)
[4] = CDK17/Y, experiment 2, read-out: Inhibition at 10µM (%)

Structure (SMILES): CC(C)(C)c1nc(-c2cccc(NS(=O)(=O)c3c(F)cccc3F)c2F)c(-c2ccnc(N)n2)s1 [Dabrafenib]
- inhibition at 10 µM (CDK4/Cyclin D1; average): 21.4%
- inhibition at 10 µM (CDK4/Cyclin D1; experiment 1): 5.4%
- inhibition at 10 µM (CDK4/Cyclin D1; experiment 2): 37.4%
- inhibition at 10 µM (CDK5/CDK5R1; average): -2.2%
- inhibition at 10 µM (CDK5/CDK5R1; experiment 1): -4.1%
- inhibition at 10 µM (CDK5/CDK5R1; experiment 2): -0.278%
- inhibition at 10 µM (CDK8/Cyclin C; average): -1.9%
- inhibition at 10 µM (CDK8/Cyclin C; experiment 1): -1.4%
- inhibition at 10 µM (CDK8/Cyclin C; experiment 2): -2.4%
- inhibition at 10 µM (CDK11A/Cyclin L2; average): 9.5%
- inhibition at 10 µM (CDK11A/Cyclin L2; experiment 1): 2.1%
- inhibition at 10 µM (CDK11A/Cyclin L2; experiment 2): 16.8%
- inhibition at 10 µM (CDK11B/Cyclin L2; average): 4.4%
- inhibition at 10 µM (CDK11B/Cyclin L2; experiment 1): 2.7%
- inhibition at 10 µM (CDK11B/Cyclin L2; experiment 2): 6%
- inhibition at 10 µM (CDK12/Cyclin K; average): 20.2%
- inhibition at 10 µM (CDK12/Cyclin K; experiment 1): 5.9%
- inhibition at 10 µM (CDK12/Cyclin K; experiment 2): 34.6%
- inhibition at 10 µM (CDK13/Cyclin K; average): 10.9%
- inhibition at 10 µM (CDK13/Cyclin K; experiment 1): 7.1%
- inhibition at 10 µM (CDK13/Cyclin K; experiment 2): 14.7%
- inhibition at 10 µM (CDK14/Cyclin Y; average): 0.0911%
- inhibition at 10 µM (CDK14/Cyclin Y; experiment 1): 0.459%
- inhibition at 10 µM (CDK14/Cyclin Y; experiment 2): -0.277%
- inhibition at 10 µM (CDK15/Cyclin Y; [1]): 14.6%
- inhibition at 10 µM (CDK15/Cyclin Y; CDK15/Y, experiment 1, read-out: Inhibition at 10µM (%)): 4.4%
- inhibition at 10 µM (CDK15/Cyclin Y; [2]): 24.7%
- inhibition at 10 µM (CDK16/Cyclin Y; experiment 1): 1.4%
- inhibition at 10 µM (CDK16/Cyclin Y; experiment 2): -3.4%
- inhibition at 10 µM (CDK17/Cyclin Y; [3]): 10.2%
- inhibition at 10 µM (CDK17/Cyclin Y; [4]): 4%
- inhibition at 10 µM (CDK17/Cyclin Y; read-out: Inhibition at 10µM (%), CDK17/Y, experiment 1): 16.4%
- inhibition at 10 µM (CDK18/Cyclin Y; average): 8.1%
- inhibition at 10 µM (CDK18/Cyclin Y; experiment 1): 1.7%
- inhibition at 10 µM (CDK18/Cyclin Y; experiment 2): 14.5%
- inhibition at 10 µM (CDK20/Cyclin H; CDK20/H, experiment 1, read-out: Inhibition at 10µM (%)): 13.5%
- inhibition at 10 µM (CDK20/Cyclin H; CDK20/H, experiment 2, read-out: Inhibition at 10µM (%)): 6.7%
- engagement of CDKs at concentrations up to 10μM (all 21 human CDKs; live cells): only weakly engaged
- inhibition at 10 µM (CDK19/Cyclin C; average): -6.6%
- inhibition at 10 µM (CDK19/Cyclin C; experiment 1): 0.8%
- inhibition at 10 µM (CDK19/Cyclin C; experiment 2): -14%
- inhibition at 10 µM (CDK10/Cyclin L2; average): 12.7%
- inhibition at 10 µM (CDK10/Cyclin L2; experiment 1): 3%
- inhibition at 10 µM (CDK10/Cyclin L2; experiment 2): 22.4%

Structure (SMILES): NS(=O)(=O)c1ccc(Nc2nc(OCC3CCCCC3)c3nc[nH]c3n2)cc1 [NU6102]
- inhibition at 10 µM (CDK6/Cyclin D1; average): 82.2%
- inhibition at 10 µM (CDK6/Cyclin D1; experiment 1): 70.6%
- inhibition at 10 µM (CDK6/Cyclin D1; experiment 2): 93.7%
- inhibition at 10 µM (CDK8/Cyclin C; average): 11.3%
- inhibition at 10 µM (CDK8/Cyclin C; experiment 1): 17.2%
- inhibition at 10 µM (CDK8/Cyclin C; experiment 2): 5.4%
- inhibition at 10 µM (CDK11A/Cyclin L2; average): 14%
- inhibition at 10 µM (CDK11A/Cyclin L2; experiment 1): 10.4%
- inhibition at 10 µM (CDK11A/Cyclin L2; experiment 2): 17.6%
- inhibition at 10 µM (CDK11B/Cyclin L2; average): 27.3%
- inhibition at 10 µM (CDK11B/Cyclin L2; experiment 1): 13.2%
- inhibition at 10 µM (CDK11B/Cyclin L2; experiment 2): 41.4%
- inhibition at 10 µM (CDK12/Cyclin K; average): 3.2%
- inhibition at 10 µM (CDK12/Cyclin K; experiment 1): 8.2%
- inhibition at 10 µM (CDK12/Cyclin K; experiment 2): -1.8%
- inhibition at 10 µM (CDK13/Cyclin K; average): 18.1%
- inhibition at 10 µM (CDK13/Cyclin K; experiment 1): 10.3%
- inhibition at 10 µM (CDK13/Cyclin K; experiment 2): 25.9%
- inhibition at 10 µM (CDK14/Cyclin Y; average): 13.8%
- inhibition at 10 µM (CDK14/Cyclin Y; experiment 1): 9.9%
- inhibition at 10 µM (CDK14/Cyclin Y; experiment 2): 17.7%
- inhibition at 10 µM (CDK15/Cyclin Y; [1]): 28.3%
- inhibition at 10 µM (CDK15/Cyclin Y; [2]): 10.5%
- inhibition at 10 µM (CDK15/Cyclin Y; read-out: Inhibition at 10µM (%), CDK15/Y, experiment 1): 46.2%
- inhibition at 10 µM (CDK16/Cyclin Y; experiment 1): 66.5%
- inhibition at 10 µM (CDK16/Cyclin Y; experiment 2): 85.2%
- inhibition at 10 µM (CDK17/Cyclin Y; [3]): 44.7%
- inhibition at 10 µM (CDK17/Cyclin Y; CDK17/Y, experiment 1, read-out: Inhibition at 10µM (%)): 40.2%
- inhibition at 10 µM (CDK17/Cyclin Y; [4]): 49.2%
- inhibition at 10 µM (CDK18/Cyclin Y; average): 30.2%
- inhibition at 10 µM (CDK18/Cyclin Y; experiment 1): 20.4%
- inhibition at 10 µM (CDK18/Cyclin Y; experiment 2): 40.1%
- inhibition at 10 µM (CDK20/Cyclin H; read-out: Inhibition at 10µM (%), CDK20/H, experiment 1): 59%
- inhibition at 10 µM (CDK20/Cyclin H; read-out: Inhibition at 10µM (%), CDK20/H, experiment 2): 76.6%
- IC50 (all 21 human CDKs; remaining CDK family, live HEK-293, read-out: Collateral CDK (potency)): > 1 µM
- inhibition at 10 µM (CDK19/Cyclin C; average): 13%
- inhibition at 10 µM (CDK19/Cyclin C; experiment 1): 21%
- inhibition at 10 µM (CDK19/Cyclin C; experiment 2): 4.9%
- inhibition at 10 µM (CDK10/Cyclin L2; average): 64%
- inhibition at 10 µM (CDK10/Cyclin L2; experiment 1): 47.6%
- inhibition at 10 µM (CDK10/Cyclin L2; experiment 2): 80.4%
